# Read-outs that look alike come from different tables or passages of the source.
# Experiments:
# SCC-7 cells = assay: Cell labelling with [131I]OIB / [131I]HIB, SCC-7 cells; assay type: cell-based; details: SCC-7, in PBS, centrifuged and washed several times
# [1] = system: rat cardiomyocytes L6 [랫트(rat) 심근세포 L6]; assay: Gamma camera imaging of labelled L6 cells transplanted into rat myocardium; assay type: in vivo; details: L6 labelled for 2 h, transplanted directly into rat myocardium
# HeLa cells = assay: Cell labelling with [131I]OIB / [131I]HIB, HeLa cells; assay type: cell-based; details: in PBS, centrifuged and washed several times
# H9C2 cells = assay: Cell labelling with [131I]OIB / [131I]HIB, H9C2 cells; assay type: cell-based; details: H9C2, in PBS, centrifuged and washed several times
# 4T1 cells = assay: Cell labelling with [131I]OIB / [131I]HIB, 4T1 cells; assay type: cell-based; details: 4T1, in PBS, centrifuged and washed several times
# [2] = system: cells with introduced L6-NIS/GFP reporter [L6-NIS/GFP 리포터가 이입된 세포]; assay: Gamma camera and GFP imaging of labelled L6-NIS/GFP cells injected subcutaneously in nude mice; assay type: in vivo, nude mouse
# L6 cells = assay: Cell labelling with [131I]OIB / [131I]HIB, L6 cells; assay type: cell-based, rat; details: for cell labelling yield: L6, in PBS, centrifuged and washed several times
# cells [세포] = details: cited from earlier work
# labelled cells [표지한 세포] = assay: MicroPET imaging after tail vein injection of [124I]HIB-labelled cells; assay type: in vivo; details: mouse, imaged for 2 h after injection, for 2 h at 18 h, and up to 66 h (about 3 days)
# [3] = MicroPET imaging after tail vein injection of [124I]HIB; assay type: in vivo; details: mouse
structure (smiles),measurement,setting,value
CCCCCCCC/C=C\CCCCCCCCOC(=O)c1ccc([131I])cc1 [[131I]OIB],cell labelling yield,SCC-7 cells,≥ 20%
same,period over which transplanted labelled cells were imaged by gamma camera,[1],2 weeks
same,cell labelling yield,HeLa cells,≥ 20%
same,cell labelling yield,H9C2 cells,≥ 20%
same,cell labelling yield,4T1 cells,≥ 20%
same,time up to which GFP imaging was measurable,[2]; 1x10^7 [131I]OIB-labelled cells s.c. in each thigh and shoulder of nude mouse,14 days
same,time up to which labelled cells were visible by gamma camera,"[2]; 1x10^7 cells s.c. in each thigh and shoulder of nude mouse, gamma camera day 1 to 14",14 days
same,cell labelling yield,L6 cells,≥ 20%
same,cell labelling efficiency,"L6 cells; [131I]OIB 136 μCi, 4x10^5 L6 cells in serum-free medium, room temperature, 30 min, washed twice with PBS",26%
"O=C(ON1C(=O)CCC1=O)c1ccc([18F])cc1 [[18F]FSB, N-succimidyl-4-[18F]fluorobenzoate]",loss of label from cells,cells [세포]; according to previous results,알킬레이트된 부분이 신진 대사로 방출되면서 세포에서 표지자가 빠져나가는 것으로 여겨진다
CCCCCCCCCCCCCCCCOC(=O)c1ccc([131I])cc1 [[131I]HIB],cell labelling yield,SCC-7 cells,≥ 20%
same,cell labelling yield,HeLa cells,≥ 20%
same,cell labelling yield,H9C2 cells,≥ 20%
same,cell labelling yield,4T1 cells,≥ 20%
same,cell labelling yield,L6 cells,≥ 20%
"CNC(=S)NN=CC(C)=NNC(=S)NC.[64Cu] [[64Cu]PTSM, [64Cu]pyruvaldehyde-bis-(n4-methyl-thiosemicarbazone)]",release of label from cells,cells [세포]; after incubation with cells,수 시간 후에 세포에서 떨어져 나와
same,duration of cell labelling,cells [세포]; compared with other F-18/Cu-64 labelling,좀 더 장기간 세포 표지가 가능하였다
"OC[C@H]1OC(O)[C@H]([18F])[C@@H](O)[C@@H]1O (stereo partly drawn) [[18F]FDG, 2-[18F]fluoro-2-deoxy-D-glucose]",release of label from cells,cells [세포],수 시간 후에 세포에서 떨어져 나와
CCCCCCCCCCCCCCCCOC(=O)c1ccc([124I])cc1 [[124I]HIB],time up to which labelled cells were seen accumulated in lung (microPET),labelled cells [표지한 세포],66 h
same,accumulation in thyroid and bladder (microPET),[3],갑상선과 방광 부위에 [124I]HIB가 축적되는 것을 확인
same,accumulation of activity in liver (microPET),[3],간 위치에 활성도가 축적
same,excretion route,[3]; inferred from liver activity,간을 통하여 배출되는 것으로 여겨진다

# — patent KR20100075412A, “방사성 세포 표지자” (경북대학교 산학협력단, priority 2008, dated 2010)
